The values below come from patent EP4364731A1, “COMPOSITION FOR USE IN THE TREATMENT OF DISRUPTED NASAL MUCOSA AND EPITHELIAL BARRIER” (Laboratorios Cinfa, S.A., priority 2022, dated 2024).

Holding throughout (type): cell-based
Data set [1] deals with Human Nasal Epithelial Cells (HNEpC). The experiment in a line: Re-epithelialization (scratch) assay. Particulars: 0.5% compound separately (FIG. 2). As to the method:
(§1) In vitro studies were performed to assess the proliferation and re-epithelialization activity of compositions containing hyaluronic acid and xylitol as individual components and in combination. Three independent trials were carried out with 4 replicates per experimental trial.
(§2) Solutions in basal culture medium of hyaluronic acid (HA, White powder,CAS number 9067-32-7, MW: 1000-1400 kDa, Givaudan France SAS xylitol (Xyl,. White crystalline powder, CAS number 87-99-0 Roquette) or combinations of hyaluronic acid and xylitol at different concentrations were tested.
Human Nasal Epithelial Cells (HNEpC) from a primary cell line isolated from normal human nasal mucosa were purchased form PromoCell (ref: C-12620). The cell line was maintained in supplemented culture medium according to the supplier guidelines and was routinely grown as a monolayer in tissue culture grade flasks. When cells exceeded 70% confluence (but less than 90%), they were sub-cultured on new culture flasks. […]
Cells were seeded in both sides of inserts attached on culture wells and were incubated in supplemented medium at 37 °C and 5% CO2. […] The area of the scratch was calculated using ImageJ software. The percentage of scratch closure (re-epithelialization percentage) was calculated relative to the negative control, a condition in which cells were not treated with any product. […]

For data set [2] the test system is unchanged. The experiment in a line: Proliferation assay (MTT). Particulars: Epithelial cell, 24 hours. As to the method: as §1, §2
Human Nasal Epithelial Cells (HNEpC) from a primary cell line isolated from normal human nasal mucosa were purchased form PromoCell (ref: C-12620). The cell line was maintained in supplemented culture medium according to the supplier guidelines and was routinely grown as a monolayer in tissue culture grade flasks. When cells exceeded 70% confluence (but less than 90%), they were sub-cultured on new culture flasks. All the cell cultures were maintained in standard cell culture conditions (37 °C, 5% CO2 and 95% humidity).
MTT, a yellow tetrazole, is reduced to purple formazan by cell metabolic activity. This reduction is proportional to the amount of living cells in the well and, therefore, to cell proliferation over time. Cells cultured in 96-well plates were treated with the test compositions for 24 hours (37 °C, 5% CO2). After 24 hours of incubation, cells were washed with PBS and stained with MTT solution and incubated at 37 °C for 2 hours. At the end of this incubation period, the staining medium was removed and 100 µL of DMSO/well were added to solubilize the colored precipitate. The absorbance was read at 540 nm in the spectrophotometer plate reader. The cell proliferation percentage was calculated relative to the negative control, a condition in which cells were not treated with any product. Cells with treatments and negative control were cultured with basal medium. As positive control, cells were cultured in supplemented medium. The % of cell proliferation was calculated by the following formula: • % proliferation = AbT/AbC x 100 • AbT = absorbance at 540 nm after 24 hours of treatment • AbC = absorbance at 540 nm of the negative control (24 hours of cells growing in basal medium)

A short description of the next data set: in vitro. Particulars: human, nasal epithelial cells. The source says:
Regarding hyaluronic acid, insolubility at concentrations above 0.5% w/v prevented the testing of higher concentrations. As for xylitol, a high in vitro cytotoxicity at concentrations above 0.5% w/v prevented the testing of higher concentrations.

Structures are written as SMILES.

Regarding `OC[C@@H](O)[C@H](O)[C@@H](O)CO` [Xyl, xylitol], the “scratch closure after 72 hours of exposure” value in data set [1] was “did not”. Further, the activation at 0.125 % in data set [2] (0.125% compound alone, read-out: increase of cell proliferation in relation to negative control) worked out at 0%. Also, the activation at 0.5 % in data set [2] (0.5% compound alone, read-out: increase of cell proliferation in relation to negative control) is 0%. For the same molecule, the activity at 0.125 % strength in data set [2] (basal medium, relative to negative control (100%), compound concentration 0.125 %w/v) came out at 99.9%. In data set [2] (basal medium, relative to negative control (100%), compound concentration 0.5 %w/v), the activity at 0.5 % strength was determined as 98.2%. Also, in the data set “in vitro”, the MCC is over 5000 µg/mL.
